From ChEMBL document CHEMBL1201862, “PubChem BioAssay data set” (2004)
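Five compound concentrations were applied to cells in 96-well plates for 48 hours; endpoints were derived by simple linear interpolation of the resulting dose-response curve. GI50 = concentration required for 50% inhibition of growth.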 Calls of active or inactive are those of the source. Rule as the data show it: active = GI50 up to about 1.1 µM and inactive = higher.

Tests used:
Experiment in all cases: inhibition of tumour cell growth, NCI panel, 48 h
[1] = system: KM12
[2] = system: NCI-H460
[3] = system: IGROV-1
[4] = system: SK-MEL-5
[5] = system: Malme-3M
[6] = system: SF-268
[7] = system: RXF 393
[8] = system: U-251
[9] = system: SF-295
[10] = system: UACC-257
[11] = system: SN12C
[12] = system: SF-539
[13] = system: HT-29
[14] = system: SK-OV-3
[15] = system: OVCAR-8
[16] = system: HOP-92
[17] = system: NCI-H522

Compound	GI50 [1]	GI50 [2]	GI50 [3]	GI50 [4]	GI50 [5]	GI50 [6]	GI50 [7]	GI50 [8]	GI50 [9]	GI50 [10]	GI50 [11]	GI50 [12]	GI50 [13]	GI50 [14]	GI50 [15]	GI50 [16]	GI50 [17]
CCOC(=O)C1=C(C)C2C3C(=O)NC(=O)C3C1(C)C1C(=O)NC(=O)C21 (stereo unspecified)	> 100 µM (inactive)	> 100 µM (inactive)	> 100 µM (inactive)	> 100 µM (inactive)	> 100 µM (inactive)	> 100 µM (inactive)	> 100 µM (inactive)	> 100 µM (inactive)	> 100 µM (inactive)	> 100 µM (inactive)	> 100 µM (inactive)	> 100 µM (inactive)	> 100 µM (inactive)	> 100 µM (inactive)	> 100 µM (inactive)	> 100 µM (inactive)	
Cc1cccc(C2=NC(C)(C)C(C)(C)N=C2c2cccc(C)n2)n1	> 100 µM (inactive)	> 100 µM (inactive)	38.5 µM (inactive)	> 100 µM (inactive)	> 100 µM (inactive)	> 100 µM (inactive)	> 100 µM (inactive)	> 100 µM (inactive)	> 100 µM (inactive)	45.4 µM (inactive)		> 100 µM (inactive)	26.1 µM (inactive)	> 100 µM (inactive)	> 100 µM (inactive)	> 100 µM (inactive)	> 100 µM (inactive)
CCOC(=O)c1cc(=O)n(C)c(=O)n1C	> 100 µM (inactive)	> 100 µM (inactive)	> 100 µM (inactive)	> 100 µM (inactive)	> 100 µM (inactive)	> 100 µM (inactive)	> 100 µM (inactive)	> 100 µM (inactive)	> 100 µM (inactive)	> 100 µM (inactive)	> 100 µM (inactive)	> 100 µM (inactive)	> 100 µM (inactive)	> 100 µM (inactive)	> 100 µM (inactive)	> 100 µM (inactive)	> 100 µM (inactive)
COc1ccc(/C(=C\c2cc(OC)c(OC)c(OC)c2)C(=O)O)cc1	25.4 µM (inactive)	35.6 µM (inactive)	48.4 µM (inactive)	16 µM (inactive)	55.3 µM (inactive)	51.6 µM (inactive)	18.8 µM (inactive)	44.6 µM (inactive)	19.9 µM (inactive)	61 µM (inactive)	37.9 µM (inactive)	14.2 µM (inactive)	35.6 µM (inactive)		33.5 µM (inactive)	33.8 µM (inactive)	21 µM (inactive)
CC1=N/C(=C\c2ccc(/C=C3/N=C(C)OC3=O)cc2)C(=O)O1	> 100 µM (inactive)		> 100 µM (inactive)	> 100 µM (inactive)	> 100 µM (inactive)	> 100 µM (inactive)	> 100 µM (inactive)	> 100 µM (inactive)		> 100 µM (inactive)	> 100 µM (inactive)	> 100 µM (inactive)	> 100 µM (inactive)	> 100 µM (inactive)	> 100 µM (inactive)	> 100 µM (inactive)	> 100 µM (inactive)
O=C(CCc1cc(-c2ccc(F)cc2)n[nH]1)N(Cc1ccccc1)Cc1ccccc1	> 100 µM (inactive)	> 100 µM (inactive)	> 100 µM (inactive)	> 100 µM (inactive)	> 100 µM (inactive)	> 100 µM (inactive)	> 100 µM (inactive)	> 100 µM (inactive)	> 100 µM (inactive)	> 100 µM (inactive)	> 100 µM (inactive)	> 100 µM (inactive)	> 100 µM (inactive)	> 100 µM (inactive)	> 100 µM (inactive)	> 100 µM (inactive)	> 100 µM (inactive)
CCN(CC)CCN(C)CC(C)(C)C(=O)/C=C/c1ccccc1	12.1 µM (inactive)	5.68 µM (inactive)	16.7 µM (inactive)	14.2 µM (inactive)	13.4 µM (inactive)	12.6 µM (inactive)		10.4 µM (inactive)	15 µM (inactive)	11.7 µM (inactive)	10 µM (inactive)	5.01 µM (inactive)	11.2 µM (inactive)	12.6 µM (inactive)	15.8 µM (inactive)	3.99 µM (inactive)	9.77 µM (inactive)
OCC(O)C(OC1OC(CO)C(O)C(O)C1O)c1nn(-c2ccccc2)c2nc3cc(Cl)c(Cl)cc3cc12 (stereo unspecified)	45 µM (inactive)	> 100 µM (inactive)			> 100 µM (inactive)	> 100 µM (inactive)	> 100 µM (inactive)	> 100 µM (inactive)	> 100 µM (inactive)	> 100 µM (inactive)	> 100 µM (inactive)	> 100 µM (inactive)	> 100 µM (inactive)	> 100 µM (inactive)	> 100 µM (inactive)		63 µM (inactive)
NNC(=S)N/N=C/C(=C/Nc1ccccc1)[N+](=O)[O-]			> 100 µM (inactive)		> 100 µM (inactive)	> 100 µM (inactive)	> 100 µM (inactive)		> 100 µM (inactive)	> 100 µM (inactive)	> 100 µM (inactive)	> 100 µM (inactive)	> 100 µM (inactive)	> 100 µM (inactive)	> 100 µM (inactive)	> 100 µM (inactive)	> 100 µM (inactive)
N#CC(C(=N/NC(N)=S)/C(=N/NC(N)=S)C(C#N)c1ccc(Cl)cc1)c1ccc(Cl)cc1 (stereo unspecified)	> 100 µM (inactive)	> 100 µM (inactive)	> 100 µM (inactive)	78.2 µM (inactive)	> 100 µM (inactive)	> 100 µM (inactive)	47.3 µM (inactive)	> 100 µM (inactive)	> 100 µM (inactive)	> 100 µM (inactive)	> 100 µM (inactive)	> 100 µM (inactive)	> 100 µM (inactive)	> 100 µM (inactive)	53.8 µM (inactive)	> 100 µM (inactive)	> 100 µM (inactive)
COc1ccc(Nc2nc3c(N)cc(C(F)(F)F)cc3nc2-c2ccccc2)cc1OC	29.3 µM (inactive)	27.3 µM (inactive)	22.3 µM (inactive)	20.4 µM (inactive)	16.4 µM (inactive)	16.5 µM (inactive)	25.7 µM (inactive)	11.3 µM (inactive)	19.7 µM (inactive)	27.2 µM (inactive)	20.2 µM (inactive)	18.2 µM (inactive)		12.7 µM (inactive)	15.1 µM (inactive)	20.5 µM (inactive)	15.6 µM (inactive)
CNC(=S)NC(=S)N(C)C		2.71 µM (inactive)	> 100 µM (inactive)			> 100 µM (inactive)	> 100 µM (inactive)	> 100 µM (inactive)	> 100 µM (inactive)	> 100 µM (inactive)	> 100 µM (inactive)	> 100 µM (inactive)		> 100 µM (inactive)	4.94 µM (inactive)	> 100 µM (inactive)	0.678 µM (active)
O=c1c2cc(Br)ccc2nc(-c2ccccc2)n1NCC1(O)OCC(O)C(O)C1O (stereo unspecified)	> 100 µM (inactive)	> 100 µM (inactive)		> 100 µM (inactive)	> 100 µM (inactive)	> 100 µM (inactive)	> 100 µM (inactive)	> 100 µM (inactive)	> 100 µM (inactive)	> 100 µM (inactive)	> 100 µM (inactive)	> 100 µM (inactive)	> 100 µM (inactive)	> 100 µM (inactive)	> 100 µM (inactive)		> 100 µM (inactive)
O=C1OCC2C1C1c3ccccc3C(O)c3ccccc3C21 (stereo unspecified)	> 100 µM (inactive)	> 100 µM (inactive)	> 100 µM (inactive)	> 100 µM (inactive)	> 100 µM (inactive)	> 100 µM (inactive)	> 100 µM (inactive)	> 100 µM (inactive)	> 100 µM (inactive)	> 100 µM (inactive)	> 100 µM (inactive)	> 100 µM (inactive)	> 100 µM (inactive)	> 100 µM (inactive)	> 100 µM (inactive)	> 100 µM (inactive)	
COC(=O)C(=O)C(C(=O)C(=O)Nc1cc(Cl)c(Cl)cc1Cl)c1nc2ccc([N+](=O)[O-])cc2nc1O (stereo unspecified)	> 100 µM (inactive)		> 100 µM (inactive)	> 100 µM (inactive)	> 100 µM (inactive)	> 100 µM (inactive)	> 100 µM (inactive)	> 100 µM (inactive)	> 100 µM (inactive)	> 100 µM (inactive)	> 100 µM (inactive)	> 100 µM (inactive)		> 100 µM (inactive)	> 100 µM (inactive)		46.9 µM (inactive)
CCN(CC)C(=O)CCn1cc(F)c(=O)[nH]c1=O	> 100 µM (inactive)	> 100 µM (inactive)	> 100 µM (inactive)	> 100 µM (inactive)	> 100 µM (inactive)	> 100 µM (inactive)	> 100 µM (inactive)	> 100 µM (inactive)	> 100 µM (inactive)		> 100 µM (inactive)	> 100 µM (inactive)	> 100 µM (inactive)		> 100 µM (inactive)		> 100 µM (inactive)
[N-]=[N+]=Nc1cc(=O)n(-c2ccccc2)c2ccccc12	> 100 µM (inactive)	> 100 µM (inactive)	> 100 µM (inactive)	> 100 µM (inactive)	> 100 µM (inactive)	> 100 µM (inactive)	63.1 µM (inactive)	> 100 µM (inactive)	> 100 µM (inactive)	> 100 µM (inactive)	> 100 µM (inactive)	> 100 µM (inactive)	> 100 µM (inactive)	> 100 µM (inactive)	> 100 µM (inactive)		> 100 µM (inactive)
